The source of these data is patent US20240423988A1, “Improvement of Tumor Immunogenicity by Means of Splicing-Controlling Compound” (Kyoto University, priority 2021, published 2024).

In one assay the test system is tumor cells. As to conditions: cited from earlier work.
Assay [1] has as its system MC38 cells. Kind of assay: Co-culture assay for tumor-killing activity, peptide-pulsed target cells. Type of assay: cell-based, murine. As to conditions: for tumor-killing responses, individual epitopes: MC38 pulsed with individual peptide, hexavalent peptide-reactive effector cells. From the text:
[FIG. 6-1] FIG. 6. Hexavalent vaccination of inducible splice-neoepitopes promotes Compound 1-induced cancer immune responses. A: A schema for the cancer-killing assay. B and C: Representative flow cytometric images showing tumor-killing activity mediated by antigen-elicited effector cells (B) and their quantitative data of annexin V^+/CFSE^+ frequency (C) are indicated (n=3/group). Hexavalent (Kifc1^−, Nf1^−, Acbd4^−, Rfx7^−, Qpct1^−, and Nup153-derived) peptides or an irrelevant Trp2180-188 peptide was used to elicit antigen-reactive effector cells. CFSE-labeled MC38 cells were stimulated with either 0.1% DMSO or hexavalent peptides for 2 hours and then co-cultured with effector cells for 24 hours. Annexin V was used for monitoring early and late apoptotic cell frequencies. *** represents p<0.001. D: For the nontargeting control (NC) or B2M KO clone (n=3/group), annexin V^+/CFSE^+ frequencies in the same experimental condition as (C) are shown. ** represents p<0.01.
[FIG. 7] A: In vitro tumor-killing activity mediated by individual splice-neoantigens. Quantitative data of annexin V^+/CFSE^+ frequencies are shown (n=3/group). CFSE-labeled MC38 cells, with or without IFN-pretreatment, were further stimulated with either 0.1% DMSO, hexavalent peptides, or individual peptides for 2 hours, and then co-cultured with hexavalent peptide-reactive effector cells for 24 hours. Data are shown as the mean±SEM. Experiments were performed at least twice. B: Tumor suppressive effect by hexavalent or individual splice-neoantigen vaccination. Tumor volumes of mice on day 23 are shown. Mice were subcutaneously vaccinated with 100 μg of peptide and 50 μg of Poly(I:C) on days 11 and 18. In groups indicated by (−), 5% DMSO was injected instead of peptide. Compound 1 ([…]) or vehicle control (0.1% DMSO) was intratumorally given once daily. Data are shown as the mean±SEM (n=7/group). Experiments were performed once.
Splenocytes were prepared from mice vaccinated with either hexavalent splice-neoantigens or an irrelevant Tpr2180-188 antigen, and then further stimulated with BMDCs pulsed with the same antigen(s) in the presence of IL-2. Tumor-killing activity was quantified based on the frequency of Annexin V^+/CFSE^+24 hours after co-culture with antigen(s)-elicited effector cells and CFSE-prelabeled target cells. […] As a result, this tumor-killing activity was absent for the B2m KO MC38 cells (FIG. 6-1D).
Splenocytes were prepared from peptide(s)-vaccinated mice inoculated with Poly(I:C) on day 14, as described in the section of “ELISpot assay”. To further elicit antigen-specific CD8^+ T cells, freshly isolated splenocytes were co-cultured with peptide(s)-pulsed bone marrow-derived dendritic cells (BMDCs) in the presence of 10 ng/ml IL-2 (Peprotech) for another 7 days. Culture was maintained by replacing half of the medium every 2 or 3 days. Splenocytes stimulated with BMDCs, as effector cells, were then co-cultured with target cells at an effector target ratio of 5:1 for 24 hours to examine their lytic activity. For the preparation of target cells, in the previous day of co-culture with effector cells, cells were labeled with […] carboxyfluorescein diacetate succinimidyl ester (CFSE; Dojindo) for 10 minutes, and incubated with FBS for additional 10 minutes to stop the labeling reaction. After washing with medium twice, cells were cultured overnight in the presence of 10 ng/ml IFN-γ. The next day, target cells were pulsed with 10 ng/ml peptide(s) for 2 hours prior to co-culture or treated with Compound 1 in the presence of effector cells. After 24 hours of co-culture, cells were stained with annexin V (Biolegend) in an annexin V binding buffer for 15 minutes and subjected to flow cytometry analysis. Effector cell-mediated killing activity was calculated from the frequencies of annexin V^+/CFSEt.

A further assay has as its system CD8^+ T cells. Briefly: IFN-γ ELISpot assay. Type of assay: cell-based. As to conditions: splenocytes of vaccinated mice co-cultured with peptide-pulsed BMDCs. How it is done:
The 22 splice-neoantigen candidates and a melanoma antigen peptide, tyrosinase-related protein 2 (TRP2) 180-188, serving as a positive control, were synthesized. […] mice were vaccinated twice with the synthesized peptides in the presence of Poly(I:C) as an adjuvant. Then, splenocytes were prepared from the vaccinated mice and co-cultured with peptide-pulsed bone marrow-derived dendritic cells (BMDCs) for 24 hours, and the activation of CD8^+ T cells was evaluated using an IFN-γ ELISpot assay (FIG. 5-1A).
Eight-week-old female C57BL/6N mice were subcutaneously injected with 100 μg of synthesized peptides (Genscript Japan) and 50 μg of poly(I:C) formulated in PBS (5 peptides/mouse) on days 0 and 7. H2-K^b TRP-2180-188 peptide (MBL International, Woburn, MA) was used as a positive control. Mice were sacrificed 12 days after the initial injection, and splenocytes were isolated. As stimulators, bone marrow-derived dendritic cells (BMDCs) were generated as described previously, with some modifications. Briefly, bone marrow cells were isolated from femurs of the 8-week-old female C57BL/6N mice through centrifugation on day 2. Cells were passed through a 70-um cell strainer and seeded in 10-cm petri dishes with RPMI1640 containing 10% FBS, 100 U/mL P/S, 2 mM L-glutamine, 50 μM 2-ME, and 20 ng/ml Gm-csf (Peprotech, Rocky Hill, NJ). Culture was maintained by replacing half of the medium every 2 or 3 days. On day 12, most of the nonadherent cells had acquired typical dendritic morphology, and these cells were pulsed with peptides (2 μg/ml) for 2 hours at 37° C. ELISpot assay was performed using a Mouse IFN-γ ELISpot BASIC kit (Mabtech AB, Nacka Strand, Sweden) as per the manufacturer's instructions. Freshly isolated splenocytes (5× 10^5 cells) were co-incubated with peptide-pulsed BMDCs (4×10^4 cells) overnight at 37° C. under 5% CO2 conditions in an ELISpot PVDF white plate coated with anti-IFN-γ antibody (clone AN18). Then, IFN-γ secretion was detected using a […] (clone R^4-6A2) and a BCIP/NBT-plus substrate. After leaving the plate to dry, the spot number was counted using a dissection microscope. Spot images were acquired using an ImmunoSpot S6 Ultimate Analyzer (Cellular Technology Limited, Cleveland, OH).

The test system of assay [2] is splenocytes (CD8^+ and CD4^+ T cells). Kind of assay: Ex vivo splenocyte culture assay (antigen-independent T cell activation). The assay is classed as cell-based, mice. As to conditions: 24 hours, flow cytometry.
Assay [3] deals with various murine cancer cell lines (LLC, Pan02, WEHI3, CT26, EG7, B16, MC38). Briefly: RNA-seq analysis of splice-neoantigen producing events in various murine cancer cell lines. The assay is classed as cell-based. How it is done: [FIG. 5-2] Continuation of FIG. 5. D and E: RT-PCR analysis for splice-neoantigen coding forms (splice-NA forms) in MC38 cells treated with 10 µM Compound 1 or vehicle control (0.1% DMSO) for 6 hours. Actb served as a loading control. * represents p<0.05, ** represents p<0.01, and *** represents p<0.001. F: Splice-neoantigen producing rates calculated from RNA-seq data (n=3 biological replicates) are indicated as the APSI (Compound 1-DMSO). All data are shown as the mean±SEM. All experiments were performed at least twice. Statistical significance was determined using unpaired Student's t-test for (B) and (E).
Then, whether the Compound 1-induced splice-neoantigens are shared across cancer type was examined using murine lung carcinoma LLC, pancreatic ductal adenocarcinoma Pan02, leukemia WEHI3, colorectal adenocarcinoma CT26, lymphoma EG7, and skin melanoma B16 cells.
The effects of Compound 2 on RNA splicing events (splicing alterations) producing the aforementioned six splice-neoantigens in various murine cancer cell lines were investigated through RNA-Seq analysis in the same manner as in FIG. 5-2F, except that Compound 1 was replaced with Compound 2 (FIG. 8).

For assay [4], the system named is MC38 cells. Kind of assay: IFN-γ signaling and expression of MHC class I components and PD-L1 in MC38 cells. Type of assay: cell-based, murine. The text has this:
MHC class I expressed in cancer cells is critical for neoantigen presentation, which is indispensable for CD8^+ T cell-dependent immune surveillance and tumor killing. To investigate whether Compound 1 modulates the neoantigen presentation pathway, first, the effects of Compound 1 on IFN-γ signaling and the expression of MHC class I components, including […] (B2M) and H2-K^b in MC38 cells, were examined because CD8^+ T cell-secreted IFN-γ is a major inducer of MHC class I components. […] In contrast, any changes in the expression of PD-L1 were not detected in host dendritic cells or macrophages. […] However, these alterations were likely not the functional mechanisms through which Compound 1 exerts its antitumor effects (FIGS. 1-2O and 1-2P), as enhanced antitumor effects of Compound 1 were observed when co-administered with αPD-L1.

Turning to `NS(=O)(=O)c1ccc(S(=O)(=O)Nc2cccc3c(Cl)c[nH]c23)cc1` [Indisulam], the “splicing events and splice-neoantigens in tumor cells” value in the assay on tumor cells was “diversely alters splicing events and generates splice-neoantigens”.

Regarding “SQPLPNKIGF (listed as Mus musculus) [Nup153, splice-neoantigen peptide derived from altered splicing of Nup153]”, the “tumor-killing responses, individual epitopes” value (from here on “tumor-killing responses”) in the assay with MC38 cells [1] is given as “significantly triggered the tumor-killing responses”. Besides, the “immunogenicity, IFN-γ ELISpot” value in the assay with CD8^+ T cells was “immunogenic”.

In the case of “Tpr2: melanoma antigen peptide, tyrosinase-related protein 2 (TRP2) 180-188; control antigen (SVYDFFVWL; UniProt P29812 180-188, looked up, fragment) [reference compound]”, the “tumor-killing activity of antigen-elicited effector cells” value in the assay on MC38 cells [1] (MC38 cells presenting six splice-neoepitopes, 24 hours co-culture, Annexin V^+/CFSE^+) is “did not exhibit any response”. As to “SLLLLYLQL (listed as Mus musculus) [Rfx7, splice-neoantigen peptide derived from altered splicing of Rfx7]”, the “tumor-killing responses” value in the assay on MC38 cells [1] is “significantly triggered the tumor-killing responses”. Further, the “immunogenicity, IFN-γ ELISpot” value with CD8^+ T cells is “immunogenic”. For “concanavalin A [concanavalin A (ConA), reference compound]”, the “CD44^+ and CD69^+ marker expressions in CD8^+ and CD4^+ T cells” value in assay [2] was “promoted”. Consider “RNRSHIFPL (listed as Mus musculus) [Nf1, splice-neoantigen peptide derived from altered splicing of Nf1]”, for which the “tumor-killing responses” value with MC38 cells [1] is listed as “significantly triggered the tumor-killing responses”. Further, the “immunogenicity, IFN-γ ELISpot” value in the assay on CD8^+ T cells is listed as “immunogenic”. For `CC(C)Oc1ccc(-c2c[nH]cc2CN(C)CCN)cc1` [MS-023], the “splicing events and splice-neoantigens in tumor cells” value in the assay with tumor cells is “diversely alters splicing events and generates splice-neoantigens”. Take `N=C1NC(=O)/C(=C/c2ccc3c(c2)CCO3)S1` [Compound 2]: in assay [3] (MC38 and B16), the “splicing alterations of the Kifc1 gene producing peptides containing MALSNKAYV” value was “markedly observed”. Moreover, in assay [3] (all the cancer cell lines), the “splicing alterations of the Rfx7 gene producing peptides containing SLLLLYLQL” value is “markedly observed”. Further, in assay [3] (various murine cancer cell lines, RNA-Seq), the production of splice-neoantigens result is given as “increases the production of splice-neoantigens”. Consider “SILGFTMV (listed as Mus musculus) [Acbd4, splice-neoantigen peptide derived from altered splicing of Acbd4]”, for which the “tumor-killing responses” value in the assay on MC38 cells [1] is on record as “significantly triggered the tumor-killing responses”. For the same molecule, the “immunogenicity, IFN-γ ELISpot” value in the assay on CD8^+ T cells is given as “immunogenic”. Consider “MALSNKAYV (listed as Mus musculus) [Kifc1, splice-neoantigen peptide derived from altered splicing of Kifc1]”, for which the “tumor-killing responses” value in the assay with MC38 cells [1] is recorded as “significantly triggered the tumor-killing responses”. In the assay on CD8^+ T cells, the “immunogenicity, IFN-γ ELISpot” value is “immunogenic”.

As to “KQQELFVLL (listed as Mus musculus) [Qpct1, splice-neoantigen peptide derived from altered splicing of Qpctl]”, the “immunogenicity, IFN-γ ELISpot” value in the assay on CD8^+ T cells is “immunogenic”.

B1: IFN-γ: interferon-γ, major inducer of MHC class I components (protein, UniProt P01579 24-161, looked up)
Interferon gamma: QDPYVKEAENLKKYFNAGHSDVADNGTLFLGILKNWKEESDRKIMQSQIVSFYFKLFKNFKDDQSIQKSVETIKEDMNVKFFNSNKKKRDDFEKLTNYSVTDLNVQRKAIHELIQVMAELSPAAKTGKRKRSQMLFRG
In the case of B1, in the assay on MC38 cells [4], the “phosphorylation of STAT1 and STAT3 and expression of B2M protein” value is recorded as “robustly induced”.
